Results on 91 compounds are retold here after a melting point compilation (Tetko et al.; mined from patent text by program, amines drawn as free bases though some values may be those of a salt).

As usually defined, the melting point is the temperature of the solid-liquid transition. Turning to `Cc1ccc(C(=O)N(C(C)C)C(C)C)c(F)c1C1=NC(C)(C(C)C)C(=O)N1` (stereo unspecified), the melting point lay within 205 to 210 °C. Compound `O=[N+]([O-])c1ccccc1Oc1cc(Cl)cc(Cl)c1` gave a melting point of 78 to 80 °C. Turning to `CC(=O)c1cccc(NC(=O)C2CC2)c1`, the melting point is 136 to 137 °C. Regarding `Cc1ccc(-c2nsc3[nH]c4ccc(C)cc4c(=O)c23)cc1`, the melting point came to 330 °C.

Compound `Cc1cc(OC(=O)N(C)SSC(C)(C)C)cc(C)c1N=Cc1ccccc1O` showed a melting point of 121 to 124 °C. For the compound `O=C(O)CN1C(=O)C(=C2CCCCC2)SC1=S`, the melting point is 196 to 201 °C. Consider `IC(I)=C(I)Cn1ncnn1`, for which the melting point is 92 to 93 °C. With `COC(=O)c1ccc2cc(-c3cccc(OC)c3)oc2c1`, the melting point fell in the range of 150 to 152 °C. `Cn1c2c3ccccc3nc-2cc2ccccc21` displayed a melting point of 178 to 180 °C.

In turn, `Fc1cc(F)c(-c2c(F)nc3ncncc3c2F)c(F)c1` displayed a melting point of 248 °C. `COc1ccc(-c2cnn3cnnc3n2)cc1` came in with a melting point of 282 to 284 °C.

`CCCc1nc2c(N)nc3cc(OCCNC(=O)OC(C)(C)C)ccc3c2s1`: the melting point fell in the range of 136 to 139 °C. `COc1ccccc1N1CCN(C(=O)[C@@H](Cc2cccnc2)NC(=O)OC(C)(C)C)CC1`: the melting point worked out at 142 °C. The compound `COc1ccc(-c2ccc(-c3nc(-c4ccc(C(F)(F)F)cc4)oc3C)cc2)cc1` returned a melting point of 167 to 168 °C. Consider `NC(=O)c1cc(O)c(O)cc1N`, for which the melting point is greater than 300 °C.

Regarding `O=C(O)COc1cccc2c1CCC(Cc1c[nH]c(C(c3ccccc3)c3ccccc3)n1)C2` (stereo unspecified), the melting point is 170 °C. Compound `Cc1ccc(C(O)CN(C)Cc2cc3c(=O)c(C(=O)NCc4ccc(Cl)cc4)cn(C)c3o2)o1` (stereo unspecified) returned a melting point of 130 to 132 °C.

As for `COCCOCCn1cc(C(=O)NCc2ccc(Cl)cc2)c(=O)c2cc(CN(C)CC#N)ccc21`, the melting point was in the range of 118 to 120 °C. In the case of `COc1ccc2cc(C(C)C(=O)OCc3ccc(OC(=O)OCCC(C)(C)C)cc3)ccc2c1` (stereo unspecified), the melting point fell in the range of 63 to 64 °C. Then `O=C(C=P(c1ccccc1)(c1ccccc1)c1ccccc1)CSc1ccccc1`, with 132 to 134 °C; and `Cn1c(C(F)(F)F)cc(=O)n(-c2cc(OC(=O)CCl)c(Cl)cc2F)c1=O`, with 89 to 92 °C; and `CC12CCC3c4c(O)cc(O)cc4CCC3C1CCC2=O` (stereo unspecified), with 245 to 247 °C. `O=C(O)C(=O)c1ccc(OCCCCCCc2cccc(O)c2O)cc1` gave a melting point of 127 to 130 °C.

In turn, `CC(=O)Nc1ccccc1C(=O)N1CC2CC2(c2ccccc2)C1` (stereo unspecified) registered a melting point of 124 to 127 °C. `CCCCc1nc2ccccn2c(=O)c1-c1ccc(N[C@@H]2CCN(C)C2)cc1`: the melting point is 64 to 66 °C. As to `CC[Si](C#Cc1c2ccccc2c2ccc3c(C#C[Si](CC)(CC)CC)c4ccccc4c4ccc1c2c34)(CC)CC`, the melting point is 300 to 307 °C.

`COc1ccc([C@@H]2O[C@H]2C(=O)Nc2ccccc2)cc1` showed a melting point of 162 to 163 °C.

On to `C#CCN(Cc1cn(C(C)(C)C)nn1)Cc1cn(C(C)(C)C)nn1`, for which the melting point stood at 126 °C. Compound `CC1(C)OC=C(CS(=O)(=O)c2ccc(F)cc2)C1=O` yielded a melting point of 159 to 160 °C.

Compound `N#CN1CCN(c2nn(S(=O)(=O)c3ccccc3)c3ccccc23)CC1` registered a melting point of 178 to 180 °C.

For the compound `Cc1cc(N)c(Cl)c(N)c1`, the melting point was 114 to 116 °C.

`CCc1nc2c(N)nc3ccccc3c2n1CC1(O)CCN(C)CC1` gave a melting point of 233 to 234 °C. In the case of `C#CCN1C(=O)NC(C)(C)C1=O`, the melting point lay in the range of 156 to 160 °C.

For `CS(=O)c1ccc(C(=O)c2cnoc2C2CC2)c(Cl)c1` (stereo unspecified), the melting point is 117 °C.

As for `CC(=O)NCCc1nnc(S)s1`, the melting point fell in the range of 157 to 160 °C.

On to `CCOC(=O)C1(C(=O)OCC)Oc2c(ccc(OC)c2Cl)C1O` (stereo unspecified), for which the melting point is 116 to 117 °C. To `O=C1Nc2ccccc2N2CCc3cc(Cl)cc1c32` belongs 232 to 233 °C.

For the compound `CCCCNC(=O)NS(=O)(=O)c1cccc2c1nnn2C`, the melting point lay within 170 to 173 °C. `CC(C)c1cc(Oc2ccc(Cl)cc2)nc(C(C)C)c1N=C=NC(C)(C)C` showed a melting point of 46 to 55 °C. To `CC(=O)Oc1c(C)c(C)c2c(c1C)CC(C)(C(=O)Nc1cnc3c(C)cc(C)cc3c1-c1ccccc1Cl)O2` (stereo unspecified) belongs 259 to 261 °C. The compound `CCn1nnc2cc3c(cc2c1=O)OC1CCCN1C3=O` (stereo unspecified) returned a melting point of 186 to 188 °C. The compound `CCOc1ccc(-c2nc(CCl)cs2)cc1OCC` had a melting point of 81.5 to 82.3 °C. On to `COc1ccc(Cl)cc1C(=O)NCCOc1ccc(CC2SC(=O)NC2=O)cc1` (stereo unspecified), for which the melting point fell in the range of 66 to 67 °C. Compound `CC(C)(C)N1CCCC1=C(C#N)c1ccc(Cl)cc1` registered a melting point of 150 to 153 °C.

`O=C1c2ccccc2CN2C(=O)CCC12` (stereo unspecified) returned a melting point of 105 to 107 °C. Regarding `CC(C)C(OCCc1ccc(-c2ccc(Cl)cc2)cc1)C(=O)O` (stereo unspecified), the melting point fell in the range of 91 to 92 °C. For `CCCCCCNCc1ccc(COc2cccc3c2CN(C2CCC(=O)NC2=O)C3=O)cc1` (stereo unspecified), the melting point lay in the range of 155 to 157 °C. `CC(C)OC(=O)c1cc(-n2c(=O)c3c(n(C)c2=O)CCC3)c(F)cc1F` showed a melting point of 112 to 115 °C.

Turning to `COc1ccc(-c2nnc(SC)nc2-c2ccc(OC)cc2)cc1`, the melting point fell in the range of 152 to 155 °C. Regarding `CCc1c(Cl)ccc2c1C=C(C(=O)O)C(C(F)(F)F)O2` (stereo unspecified), the melting point came to 172 °C. Then `CCC(=O)SCC(CC(=O)c1ccccc1)C(=O)O` (stereo unspecified), with 76 to 78 °C. The compound `CC(=O)OC1CCC(n2c(Br)nc3cc(Cl)c(Cl)cc32)C1OC(C)=O` (stereo unspecified) showed a melting point of 140 to 146 °C.

`N#CC=C(N)c1ccsc1` had a melting point of 67 to 69.5 °C. The compound `CSc1nnc(-c2ccc3ncn(-c4cccc(OC(F)(F)F)c4)c3c2)o1` came in with a melting point of 149 to 150 °C. As for `COC(=O)C1=CC(C)(C#N)N(c2cccc(Cl)c2Cl)N1` (stereo unspecified), the melting point lay in the range of 66 to 67 °C.

`COC(=O)C1=C(CF)NC(C)=C(C(=O)OC(C)C)C1c1cccc(OC)c1OC` (stereo unspecified) returned a melting point of 89 to 91 °C. Then `CCOc1csc(N)c1C#N`, with 145 to 146 °C; and `Cc1oc(-c2ccccc2)nc1COc1ccc(CCCBr)cc1`, with 80 to 81 °C; and `Cc1ccc(-c2cccc(/C=C/C(=O)Nc3ccc(CN4CCN(Cc5ccc6c(c5)OCO6)CC4)cc3)c2)cc1`, with 204 to 207 °C. For `Cc1ccc([N+](=O)[O-])c(-c2nc(C(F)(F)F)cs2)c1`, the melting point fell in the range of 98 to 104 °C. Then `CC(=O)/C=C(\C)c1ccc(C2CCCCC2)c(Cl)c1`, with 56.5 to 57.5 °C. As to `O=C(Nc1ccc(F)nc1)c1cccc(-c2cccc3oc(Cc4cccc(C(F)(F)F)c4)cc23)c1`, the melting point is 117 to 118 °C.

Take `CC(=O)c1ccc(CBr)s1`: the melting point is 58 to 59 °C. Compound `O=C(O)C1Cc2ccccc2N1S(=O)(=O)c1ccc(-c2cc(C(F)(F)F)ccc2Cl)cc1` (stereo unspecified) had a melting point of 79 to 83 °C. `COc1ccc(C(=O)Nc2ccc(C(C)(C)C#N)c(-c3cccc(Cl)c3)c2)cc1OC`: the melting point lay within 144 to 146 °C. In turn, `COc1ccc(C2C3=C(COC3=O)Nc3ccc4cc[nH]c4c32)cc1O` (stereo unspecified) registered a melting point of 297 to 299 °C. For `CCc1onc(-c2ccc(Cl)cc2)c1CCC(=O)O`, the melting point lay within 164 to 165 °C. In turn, `O=C(N[C@@H](CNC(=O)c1ccc(C2CC2C(=O)NC2=NCCCN2)s1)C(=O)O)OCc1ccccc1` (stereo partly specified) came in with a melting point of 98 °C. The compound `C=C1c2c(ccc(OC(C)=O)c2OC(C)=O)C(=O)N2CCCCC12` (stereo unspecified) yielded a melting point of 129 to 132 °C. To `CCc1ncnc(NC2CCc3cc(OC)ccc3C2)c1Cl` (stereo unspecified) belongs 70 to 71 °C; to `CCOC(=O)N1CCC(Nc2ccc(C(F)(F)F)c([N+](=O)[O-])c2)CC1`, 127 °C. To `COCCOc1ccc(CSc2cnn(C(C)(C)C)c(=O)c2Cl)cc1` belongs 106 to 107 °C. With `Cc1cc2c(cc1-c1c[nH]c(C=O)c1)C(C)(C)CCC2(C)C`, the melting point was 128 to 129 °C. In the case of `OC(c1nnn[nH]1)c1ccccc1Cl` (racemic), the melting point is 130 to 132 °C. As for `Cc1ccc([N+](=O)[O-])c(C)c1CO`, the melting point was in the range of 94.5 to 96.1 °C. As for `CC(C)(C)C(=O)C(C#N)C(=O)c1ccc(S(C)(=O)=O)cc1Cl` (stereo unspecified), the melting point was 144 °C.

Consider `c1ccc2nc(Cn3ccnc3)ccc2c1`, for which the melting point was 106 to 107 °C.

With `CC(=O)N[C@@H](C(=O)Oc1ccccc1)C(C)(C)SN=O`, the melting point was 120 °C. Then `CN(C)c1ccc2[nH]c(-c3cc(NC(=O)c4cccc(OCCCCCCC(=O)NO)c4)ccc3Cl)nc2c1`, with 140 to 142 °C; and `Cc1cccc(NC(=O)C=Cc2cn(C)nc2[N+](=O)[O-])n1`, with 191 to 193 °C. In turn, `COc1cc(C(=O)NS(=O)(=O)c2ccccc2C)ccc1Cn1cc(CCC(=O)N(C)C)c2ccc(CCC(=O)N(C)C)cc21` showed a melting point of 105 to 109 °C. `Nc1ccc(-c2ncc(C(F)(F)F)cc2Cl)cc1[N+](=O)[O-]` yielded a melting point of 126 to 127 °C.

`CC(C)c1nc2c(c(-c3ccc(F)cc3)c1C(C)O)CCC2(C)C` (stereo unspecified) returned a melting point of 90 to 92 °C. `Cc1cc(C)nc(C(=O)c2[nH]c3ccc(Cl)cc3c2CC(=O)O)c1` came in with a melting point of 233 to 235 °C. The compound `COc1ccc(C(=O)c2ccc(OCc3nc(-c4ccccc4)sc3C)cc2)c(OC(C)(C)C(=O)O)c1` showed a melting point of 145 to 147 °C.

As for `COc1ccc(C=NC2CCN(c3cc4c(cc3F)c(=O)c(C(=O)O)cn4-c3ccc(F)cc3)C2)cc1` (stereo unspecified), the melting point was 270 to 271 °C. For the compound `COC[C@@H](C)n1cc(Cl)nc(N2CCc3cc(Cl)cc(Cl)c32)c1=O`, the melting point was 93 to 95 °C. `CN(CCOc1ccc(CC(SCCN)C(=O)O)cc1)c1nc2ccccc2o1` (stereo unspecified) had a melting point of 200 to 201 °C. `CC(=O)Nc1ccccc1CN1CCC(CCC(=O)c2ccc(Nc3ncnc4c3CCC4)cc2)CC1` displayed a melting point of 219 to 222 °C.

`COC(=O)c1cc(Cl)cc2c1OCCN2C` registered a melting point of 91 to 92 °C. Turning to `Clc1c(Br)cncc1Br`, the melting point fell in the range of 101 to 103 °C.
